Data on 20 molecules can be found in paper PMC8659279, “Identification of a Novel Delta Opioid Receptor Agonist Chemotype with Potential Negative Allosteric Modulator Capabilities” (Molecules, 2021).

Where two headings read alike, the source gives them in different places. Bounds are passed on as bounds.

In data set [1] the target is T1, µOR (Homo sapiens, UniProt P35372). Details: method as in PMID 27533032. The note with it: ref [32]; read-out: affinity at the µOR; cited from earlier work.
The target of data set [2] is T2, δOR (Homo sapiens, UniProt P41143). Details: method as in PMID 26507558, PMID 20850307, doi:10.1016/S0021-5198(19)49890-9. The note with it: ref [14],[18],[19]; cited from earlier work.
T2 sequence (P41143 whole entry): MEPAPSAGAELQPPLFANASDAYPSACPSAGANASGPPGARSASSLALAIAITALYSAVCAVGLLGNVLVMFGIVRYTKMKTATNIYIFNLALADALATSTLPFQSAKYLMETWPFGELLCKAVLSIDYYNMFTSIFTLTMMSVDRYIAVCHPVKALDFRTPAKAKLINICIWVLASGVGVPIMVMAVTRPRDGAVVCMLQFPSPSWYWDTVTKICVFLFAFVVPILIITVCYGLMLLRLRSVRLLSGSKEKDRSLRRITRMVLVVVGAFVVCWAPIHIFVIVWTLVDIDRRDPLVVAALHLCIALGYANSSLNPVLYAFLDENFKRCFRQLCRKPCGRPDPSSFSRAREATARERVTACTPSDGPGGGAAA
For data set [3] the following is noted: cited from earlier work.
Data set [4] addresses T3, δOR (Mus musculus, UniProt P32300).
T3 construct: FLAG; expressed in transfected cells; host or cells: HEK 293
The data set is described as follows: GloSensor cAMP inhibition assay (forskolin-induced cAMP) in HEK 293 cells. The class given is cell-based.

Data set [5] deals with T4, κOR (Homo sapiens, UniProt P41145). Also on record: method as in PMID 28339199. The note with it: ref [36]; read-out: affinity at the κOR; cited from earlier work.
T4 sequence (P41145 whole entry): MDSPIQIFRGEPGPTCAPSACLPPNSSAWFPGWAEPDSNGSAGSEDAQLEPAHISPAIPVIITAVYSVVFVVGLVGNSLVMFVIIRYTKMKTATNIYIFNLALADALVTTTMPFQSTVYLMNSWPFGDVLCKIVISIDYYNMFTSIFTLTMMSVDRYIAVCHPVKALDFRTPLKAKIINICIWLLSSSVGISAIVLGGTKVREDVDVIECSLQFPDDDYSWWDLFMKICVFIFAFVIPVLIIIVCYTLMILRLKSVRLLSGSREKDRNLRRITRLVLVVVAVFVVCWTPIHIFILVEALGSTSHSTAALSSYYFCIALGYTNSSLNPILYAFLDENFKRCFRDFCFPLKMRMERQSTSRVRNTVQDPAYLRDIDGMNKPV
In data set [6] the target is T4, κOR. Also on record: method as in PMID 28339199. To be noted: ref [36]; read-out: potency at the κOR; cited from earlier work.
Data set [7] addresses T3, δOR. The data set is described as follows: Assessment of allosteric modulation of Leu-enkephalin in δOR glosensor cAMP assay. The format is cell-based.
Data set [8] has as its target T2, δOR. The data set is described as follows: PathHunter β-arrestin 1 recruitment, U2OS cells (also library screen). The class given is cell-based. To be noted: read-out: β-ARR1 potency (pEC50) (converted).
The target in data set [9] is T2, δOR. The data set is described as follows: PathHunter β-arrestin 2 recruitment, CHO-human δOR cells. The class given is cell-based. To be noted: read-out: β-ARR2 potency (pEC50) (converted).
In data set [10] the target is T2, δOR. The data set is described as follows: Radioligand binding assay with [3H]DPDPE.
Data set [11] addresses T4, κOR. As to the kind of experiment: Radioligand binding assay with [3H]U69,593. To be noted: read-out: Affinity (pKi ± SEM) (converted).
Data set [12] addresses T4, κOR. As to the kind of experiment: GloSensor cAMP inhibition assay (forskolin-induced cAMP). The format is cell-based. The note with it: read-out: cAMP Potency (pIC50 ± SEM) (converted).
Data set [13] concerns the target T1, µOR. The data set is described as follows: Radioligand binding assay with [3H]DAMGO. To be noted: read-out: Affinity (pKi ± SEM) (converted).
Data set [14] has as its target µOR (Mus musculus, UniProt P42866). As to the kind of experiment: GloSensor cAMP inhibition assay (forskolin-induced cAMP) in HEK 293 cells. The format is cell-based. The note with it: read-out: cAMP Potency (pIC50 ± SEM) (converted).
Where [15] appears, read: Table 2, three or more independent trials, read-out: pIC50 ± SEM to inhibit cAMP signaling at δOR (converted).

T3 sequence (P32300 whole entry): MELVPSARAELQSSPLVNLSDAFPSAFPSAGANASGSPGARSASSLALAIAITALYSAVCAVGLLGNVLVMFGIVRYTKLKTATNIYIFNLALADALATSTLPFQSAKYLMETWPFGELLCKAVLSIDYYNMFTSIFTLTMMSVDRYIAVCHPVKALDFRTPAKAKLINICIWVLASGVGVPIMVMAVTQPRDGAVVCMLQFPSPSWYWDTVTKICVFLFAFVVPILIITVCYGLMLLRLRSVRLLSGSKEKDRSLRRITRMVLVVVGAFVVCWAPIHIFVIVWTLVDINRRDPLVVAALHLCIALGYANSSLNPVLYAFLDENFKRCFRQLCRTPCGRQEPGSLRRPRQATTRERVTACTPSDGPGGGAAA
T1 sequence (P35372 whole entry): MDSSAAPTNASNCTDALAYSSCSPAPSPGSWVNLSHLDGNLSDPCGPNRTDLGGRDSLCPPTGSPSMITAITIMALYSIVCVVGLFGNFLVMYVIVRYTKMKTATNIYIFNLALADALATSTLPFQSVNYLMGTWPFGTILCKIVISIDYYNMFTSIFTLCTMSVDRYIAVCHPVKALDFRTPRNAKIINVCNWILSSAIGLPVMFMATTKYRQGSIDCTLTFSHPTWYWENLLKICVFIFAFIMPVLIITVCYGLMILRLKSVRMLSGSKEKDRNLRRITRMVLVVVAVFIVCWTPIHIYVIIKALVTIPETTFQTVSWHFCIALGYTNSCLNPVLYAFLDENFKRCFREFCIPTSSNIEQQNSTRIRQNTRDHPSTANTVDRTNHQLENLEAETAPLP
Sequence of µOR (Mus musculus, UniProt P42866) (P42866 whole entry): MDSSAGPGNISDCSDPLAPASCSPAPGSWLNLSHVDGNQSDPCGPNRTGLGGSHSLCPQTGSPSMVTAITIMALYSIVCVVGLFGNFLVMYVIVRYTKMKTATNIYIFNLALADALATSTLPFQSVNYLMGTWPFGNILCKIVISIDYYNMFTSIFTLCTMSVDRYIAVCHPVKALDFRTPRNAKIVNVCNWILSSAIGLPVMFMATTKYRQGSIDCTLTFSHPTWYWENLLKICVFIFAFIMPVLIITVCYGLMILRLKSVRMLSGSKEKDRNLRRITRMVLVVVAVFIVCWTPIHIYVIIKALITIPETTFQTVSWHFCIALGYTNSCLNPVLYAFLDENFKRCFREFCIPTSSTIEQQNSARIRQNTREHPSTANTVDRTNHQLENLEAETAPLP

In the case of `C[C@H](Cc1cccs1)NC(=O)NC[C@H](Cc1ccc(O)cc1)N(C)C` [PZM21], on µOR [1], the Ki is 0.001 µM.

Regarding `CN1CCC23Cc4nc5ccccc5cc4CC2(O)C1Cc1ccc(O)cc13` (stereo not drawn) [KNT-127], the “Emax for β-arrestin 2 recruitment” value at δOR [2] is recorded as 70%. Also, the convulsions entry in data set [3] (ref [14],[18],[19]) was “do not induce convulsions”. With `O=C(N/N=C/c1ccccc1)c1cc(-c2cccs2)n[nH]1` [Compound 2], the IC50 on δOR [4] (setting [15]) is 12.6 µM. Take `COc1cccc(/C=N/NC(=O)c2cc(-c3cccs3)n[nH]2)c1` [Compound 9]: the IC50 at δOR [4] (setting [15]) is 15.8 µM. As to `CC(c1cccc(O)c1)N(C)CCc1nccn1C` (stereo not drawn) [compound 81], the Ki on κOR [5] is 0.16 µM. On κOR [6], the EC50 was 0.53 µM. Regarding `COc1cccc(C=NNC(=O)c2cc(-c3cccs3)n[nH]2)c1O` [Compound 1, N’-(2-hydroxy-3-methoxybenzylidene)-3-(2-thienyl)-1H-pyrazole-5-carbohydrazide], the “modulation of Leu-enkephalin activity in cAMP glosensor assay” value at δOR [7] (Leu-enkephalin co-incubated with 0.1-10 µM compound 1) is “negative allosteric modulator (NAM)-agonist”. The “β (change in Leu-enkephalin Emax)” value on δOR [7] (Leu-enkephalin co-incubated with increasing concentrations of compound 1) was 1. Besides, the EC50 at δOR [8] and on δOR [9] was > 10 µM each time. At δOR [10] (δOR over µOR and κOR), the “affinity and potency at δOR stronger than for µOR and κOR (selectivity)” value was “roughly 10 fold”. Also, the Ki is 1.15 µM at δOR [10] (δOR, read-out: Affinity (pKi ± SEM) (converted)); > 10 µM on κOR [11]; > 10 µM at µOR [13]. The IC50 was > 10 µM on κOR [12]; > 10 µM at µOR [14]; 1 µM on δOR [4] (setting [15]); 0.977 µM on δOR [4] (δOR, read-out: cAMP Potency (pIC50 ± SEM) (converted)). In the case of `COc1cccc(/C=N/NC(=O)c2cc(-c3ccco3)n[nH]2)c1O` [Compound 12], the IC50 on δOR [4] (setting [15]) was 7.94 µM. Same read-out and setting: next, `COc1cccc(/C=N/NC(=O)c2cc(-c3ccc(Cl)s3)n[nH]2)c1O` [Compound 13]: 7.94 µM; `COc1cc(/C=N/NC(=O)c2cc(-c3ccc(C)s3)n[nH]2)ccc1O` [Compound 15]: 10 µM. In the case of `CCN(CC)C(=O)c1ccc([C@H](c2cccc(N)c2)N2C[C@@H](C)N(Cc3ccc(F)cc3)C[C@@H]2C)cc1` [AZD2327], in data set [3] (ref [8]), the proconvulsant effects entry is given as “proconvulsant effects”.

As to `COc1cc(/C=N/NC(=O)c2cc(-c3cccs3)n[nH]2)cc(OC)c1OC` [Compound 8], on δOR [4] (setting [15]), the IC50 is 10 µM. Still for that read-out and setting: the result for `COc1ccc(/C=N/NC(=O)c2cc(-c3ccc(C)s3)n[nH]2)cc1OC` [Compound 11] reads 3.98 µM.

Regarding `Cc1cccc(/C=N/NC(=O)c2cc(-c3cccs3)n[nH]2)c1` [Compound 3], at δOR [4] (setting [15]), the IC50 is 7.94 µM. Regarding `CN(C)C(=O)c1ccc(C(=C2CCN(Cc3cncs3)CC2)c2cccc(C(N)=O)c2)cc1` [PN6047], the proconvulsant effects entry in data set [3] (ref [17]) is reported as “not proconvulsant”. On to `CCOc1cccc(/C=N/NC(=O)c2cc(-c3ccc(Cl)s3)n[nH]2)c1O` [Compound 10], for which the IC50 at δOR [4] (setting [15]) is 7.94 µM. The same measure, in the same setting: the result for `CCOc1cccc(/C=N/NC(=O)c2cc(-c3ccco3)n[nH]2)c1O` [Compound 5] reads 10 µM; that for `O=C(N/N=C/c1ccc(O)c(O)c1)c1cc(-c2cccs2)n[nH]1` [Compound 6], 12.6 µM; that for `O=C(N/N=C/c1ccc(Cl)cc1)c1cc(-c2cccs2)n[nH]1` [Compound 4], 12.6 µM. Take `CN1CCC2(c3cccc(O)c3)Cc3nc4ccccc4cc3CC2C1` (stereo not drawn) [TAN-67]: the “Emax for β-arrestin 2 recruitment” value at δOR [2] was 30%. As for `COc1cccc(/C=N/NC(=O)c2cc(-c3ccc(Br)s3)n[nH]2)c1O` [Compound 14], at δOR [4] (setting [15]), the IC50 is 10 µM.
